Data as given in patent US6448224B1, “Antibiotics and methods of using the same” (priority 1998, dated 2002).
Entries after “also recorded” stand apart in the source; their conditions may differ.

Legend:
[1] = system: pneumococcal strain R6; assay: Cell growth curves (OD 620 nm) of R6 cultures with or without test reagents; format: cell-based, Streptococcus pneumoniae; conditions: for ability to inhibit R6 growth (FIG. 5): 100 μM peptide added to growing R6 at OD 620 nm of 0.1
Procedure: (§1) Cell growth curves were performed in the presence or absence of the test reagents as specified. In short, samples were prepared as follows: 1 ml of a pneumococcus culture was placed into 10 ml of prewarmed Semisynthetic (C+Y) medium. The optical density (OD) of the bacteria was monitored at 620 nm until an OD of approximately 0.1 was reached. At this point the test reagents were administered to the samples. The cells were cultured for up to 11 hours at 37° Celsius, and the OD at 620 nm was monitored every hour. A decrease in OD 620 is indicative of cell lysis, an increase is indicative of bacterial growth. No change in optical density indicates growth inhibition.
(§2) The peptide having amino acid sequence SEQ ID NO:2 was chemically synthesized and tested for growth inhibiting, killing and lytic activity in Streptococcus pneumoniae cultures. To characterize the antibacterial activity of the peptide, pneumococcal strain R6 which is sensitive to penicillin was exposed to 0.1 mM of the peptide having the amino acid sequence of SEQ ID NO:2 at an optical density of 0.01 (bacterial density of 3×10^6 cfu/ml). Bacterial growth as measured by optical density was followed for 11 hours and viability was assessed by plating on blood agar. […] Four hours after the start of the experiment, the control strain grew from 3×10^6 to 1.2×10^7 cfu/ml. In contrast, four hours after addition of the peptide, the viable bacterial number decreased from 3×10^6 to 3×10^4 CFU/ml (10^3-fold lower than the control).
The fact that the peptide is active in the range below 1 μg/ml places the potency of its antibacterial effect in the same range as conventional antibiotics.
R6 with no peptide was the control and underwent exponential growth.

[2] = system: Orf W1 insertion duplication mutant of R6x; assay: Phenotypes of the mutants: lysis, Orf W1 mutant; format: cell-based, S. pneumoniae
Procedure: (§3) Bacterial strains and growth conditions: The parental strain of S. pneumoniae used in these studies was R6x [Tiraby et al., Proc. Natl. Acad. Sci. USA., 70:3541-3545 (1973)], a derivative of the unencapsulated Rockefeller strain R36A [Avery et al., J. Ex. Med., 79:137-158 (1944)]. Pneumococci were routinely grown on tryptic soy agar (TSA, Difco) supplemented with sheep blood to a final concentration of 3% (v/v). For growth in liquid culture, the bacteria were grown in a semi-synthetic casein hydrolysate medium supplemented with yeast extract (C+Y, [Lacks et al., Biochem. Biophys. Acta., 39:508-517 (1960)]). For the selection and maintenance of pneumococci containing chromosomally integrated plasmids, bacteria were grown in the presence of 1 μg/ml erythomycin and/or 250 μg/ml kanamycin.
(§4) Construction of mutations: Insertion duplication mutagenesis was carried out using PCR to generate gene fragments for homologous recombination proximal to the amino terminus of Orf W1, HK or RR as follows:
OrfW1: 435 bp gene fragment spanning residues 473 (EcoR1 site) to 908 (BamH1 site) of SEQ ID NO:21.
(§5) Phenotypes of the mutants: The mutants were assessed for various physiological functions characteristic of pneumococci. This included lysis by penicillin, vancomycin, and the detergent deoxycholate (DOC). Other capabilities tested included ability to undergo natural DNA transformation (Transform) and expression of the LytA protein as assessed by Western blot. All mutants grew at the normal 30-40 minute doubling time and formed the classical diplococcal morphology.

[3] = system: RR insertion duplication mutant of R6x; assay: Phenotypes of the mutants: lysis, RR mutant; format: cell-based, S. pneumoniae
Procedure: as §3, §4
RR: 371 bp gene fragment spanning residues 142 (EcoR1 site) to 513 (BamH1 site) of SEQ ID NO:15.
as §5

[4] = system: HK insertion duplication mutant of R6x; assay: Phenotypes of the mutants: lysis, HK mutant; format: cell-based, S. pneumoniae
Procedure: as §3, §4
HK: 411 bp gene fragment spanning residues 279 (EcoR1 site) to 690 (BamH1 site) of SEQ ID NO:13.
as §5

[5] = system: loss of function mutants of the ABC transporter and RR/HK; assay: Tolerance of loss of function mutants in ABC transporter and RR/HK to antibiotics; format: cell-based, S. pneumoniae; conditions: all 3 mutants; growth inhibitory concentrations
Excerpt: As described in Example 6, using insertion duplication mutagenesis, loss of function mutations were obtained in each of the 3 open reading frames of the ABC transporter and each of the two parts of the RR/HK. […] These parallel phenotypes further implicate these topographically close genes in a common pathway.
Vancomycin is the only antibiotic that maintains efficacy against many strains of highly antibiotic resistant bacteria, such as staphylococci, enterococci and pneumococci. Escape from antibiotic activity of vancomycin has been detected in rare staphylococci and enterococci but not in pneumococci as yet. […] Infect. Dis. J., 12:196-200 (1993); Marton et al., J. Infect. Dis., 163:542-8 (1991); and Bradley et al., Pediatr. Infect. Dis., 14:1037-1041(1995)]. […] If they created a phenotype which was corrected by exogenous peptide, they may participate in the biological activity of the peptide. For instance, the ABC transporter may transport the peptide and the HK may serve as an extracellular receptor for the peptide which then changes the behavior of the bacteria (i.e. killing) via a RR signal.

[6] = system: clinical isolate A144; assay: Cell viability (CFU/ml) of clinical isolate A144 one hour after addition; format: cell-based, pneumococcus; conditions: 10×MIC penicillin, 10×MIC vancomycin or 0.4 mM peptide
Excerpt: (§6) Tolerance to penicillin occurs in bacteria that fail to trigger autolysins in response to the drug. […] This is a mechanism of resistance to these drugs and is a serious emerging medical problem. […] However, one pneumococcal strain that fails to lyse and dies slowly in response to both penicillin and vancomycin is the clinical isolate A144. This combination of traits makes A144 recalcitrant to therapy. FIG. 8 compares the activity of penicillin, vancomycin, and the peptide against a classical sensitive strain, R6, and the tolerant strain A144. […] In contrast, strain A144 loses only 0.5 logs of viability in the same time period for all three therapies. […] Thereafter the bacteria grew more slowly than untreated controls.

[7] = system: clinical isolate F79 (mutations in HK and ABC transporter genes); assay: Lysis of clinical isolate F79 cells; format: cell-based, pneumococcus; conditions: 10×MIC penicillin and/or 0.5 mM peptide
Procedure: (§7) FIGS. 11A-11B show the effects of 10×MIC of penicillin and/or 0.5 mM of the peptide having the amino acid sequence of SEQ ID NO:2 on the lysis of clinical isolate F79 cells (FIG. 11A) and HK mutant VanS cells (FIG. 11B).
(§8) F79 is a natural isolate of pneumococcus with mutations in the HK and the ABC transporter genes as determined by SSCP (see Example 11). This strain is tolerant to penicillin and vancomycin.

[8] = system: pneumococcus R6, non-growing; assay: Lysis of R6 cells under starvation conditions (medium lacking lysine); format: cell-based; conditions: 10×MIC penicillin and/or 0.5 mM peptide
Excerpt: When bacteria grow slowly or stop growing due to nutrient deprivation, they become tolerant to antibiotics of all classes. […] This prolongs the course of antibiotics needed to treat these infections. For instance, many weeks of therapy are required to treat endocarditis and osteomyelitis secondary to slowly growing bacteria. An in vitro example of phenotypic tolerance is shown in FIG. 10 where pneumococcus R6 has been transferred at time 0 to a medium lacking the essential amino acid lysine. Penicillin was added 5 min after the transfer. […] This same response is seen with the peptide.

[9] = system: HK mutant strain Van S; assay: Lysis of HK mutant VanS cells; format: cell-based, pneumococcus; conditions: 10×MIC penicillin and/or 0.5 mM peptide
Procedure: as §7, §8

[10] = system: pneumococcal strain R6; assay: Cell viability (CFU/ml) of R6, plating on blood agar; format: cell-based, Streptococcus pneumoniae; conditions: 0.1 mM peptide
Procedure: as §2, §6

[11] = system: Lyt-4-4 strain of Streptococcus pneumoniae (loss of LytA activity); assay: Growth curve (OD 620 nm) of autolysin deficient strain Lyt 4-4; format: cell-based; conditions: 0.1 mM peptide; absence of autolytic activity
Procedure: The addition of the additives were made at time “0” hours. The strain of bacteria cultured was the Lyt-4-4 strain of Streptococcus pneumoniae which harbors a mutation leading to the loss of LytA activity. The peptide having the amino acid sequence of SEQ ID NO:2 was added as indicated at a concentration of 0.1 mM. Lyt-4-4 lacks active autolysin LytA and is therefore tolerant to penicillin treatment.
as §1
This antibacterial effect was also demonstrable in bacteria mutated so as to prevent autolysis by point mutation in the autolysin, as in the autolysin deficient strain Lyt 4-4.

[12] = system: Lyt 4-4; assay: Chain morphology of Lyt 4-4; format: cell-based, Streptococcus pneumoniae; conditions: 0.5 mM peptide in the medium
Excerpt: Loss of chain formation is a measure of antibacterial activity independent of autolysin.
Strains of pneumococcus that are tolerant to penicillin, such as Lyt 4-4, grow in long chains as compared to the diplococcal morphology of wild type pneumococci. FIG. 6A illustrates these chains, which extend to 30-50 bacteria in length.

[13] = system: mutant in ORF WI; assay: Antibacterial activity of the peptide in mutants: growth inhibition, ORF W1 mutant; format: cell-based, S. pneumoniae; conditions: peptide added from the outside
Excerpt: (§9) To test this hypothesis the ability of the peptide having the amino acid sequence of SEQ ID NO:2 to maintain antibacterial activity in the mutants was examined. […] Furthermore, bacteria which are tolerant by virtue of phenotypic tolerance due to slow growth rate or mutations in genes other than the RR/HK will be susceptible to the antibacterial effect of the peptide.

[14] = system: RR/HK mutants; assay: Antibacterial activity of the peptide in mutants: growth inhibition, RR/HK mutants; format: cell-based, S. pneumoniae; conditions: peptide added exogenously
Excerpt: as §9

[15] = system: clinical isolate A144; assay: Growth of clinical isolate A144; format: cell-based, pneumococcus; conditions: 0.1 mM peptide added early in the growth cycle; for 4 hours
Excerpt: as §6

MEFMRKEFHNVLSSGQLLADKRPARDYN (listed as Streptococcus pneumoniae) [SEQ ID NO:12]
antibacterial activity against R6 [1]: no antibacterial activity

CN[C@H](CC(C)C)C(=O)N[C@H]1C(=O)N[C@@H](CC(N)=O)C(=O)N[C@H]2C(=O)N[C@H]3C(=O)N[C@H](C(=O)N[C@H](C(=O)O)c4cc(O)cc(O)c4-c4cc3ccc4O)[C@H](O)c3ccc(c(Cl)c3)Oc3cc2cc(c3O[C@@H]2O[C@H](CO)[C@@H](O)[C@H](O)[C@H]2O[C@H]2C[C@](C)(N)[C@H](O)[C@H](C)O2)Oc2ccc(cc2Cl)[C@H]1O [Vancomycin, vancomycin]
Lysis by [2]: tolerant
Lysis by [3]: sensitive
Lysis by [4]: tolerant
lysis and death / tolerance of the mutants [5]: exhibited tolerance
loss of viability of A144 within one hour [6]: 0.5 logs
lysis / tolerance of F79 [7]: tolerant

penicillin
lysis of growing R6 ([1]; 10×MIC, normal growth): lyses R6 within one hour
Lysis by [2]: tolerant
Lysis by [3]: sensitive
Lysis by [4]: tolerant
lysis and death / tolerance of the mutants [5]: failed to lyse and die
loss of viability of A144 within one hour [6]: 0.5 logs
lysis response of non-growing R6 [8]: only a minimal response
viability of non-growing R6 [8]: unaffected
lysis / tolerance of F79 [7]: tolerant
lysis / tolerance of strain Van S [9]: tolerance

MRKEFHNVLSAGQLLADKRPARDYN [Peptide 3]
ability to inhibit R6 growth (FIG. 5) [1]: greatly enhanced antibacterial effect

deoxycholate [DOC]
Lysis by [2]: no
Lysis by [3]: yes
Lysis by [4]: yes

MRKEFHNVLSSGQLLADKRPARDYNRK (listed as Streptococcus pneumoniae) [Peptide 6]
ability to inhibit R6 growth (FIG. 5) [1]: the same effect

LADKRPARDYN (listed as Streptococcus pneumoniae) [Peptide 5]
ability to inhibit R6 growth (FIG. 5) [1]: Exponential growth equal to untreated bacteria

MRKEFHNVLSSGQL (listed as Streptococcus pneumoniae) [Peptide 4]
ability to inhibit R6 growth (FIG. 5) [1]: Exponential growth equal to untreated bacteria

MRKEFHNVLSSGQLLADKRPARDAN [Peptide 2]
ability to inhibit R6 growth (FIG. 5) [1]: greatly decreased anti-bacterial activity

MRKEFHNVLSSGQLLADKRPARDYN (listed as Streptococcus pneumoniae) [Peptide 1]
ability to inhibit R6 growth (FIG. 5) [1]: significant delay in the onset of bacterial growth
lysis ([1]; 0.1 mM peptide, R6, followed for 11 hours): No lysis was detected
growth of the bacteria (optical density) ([1]; 0.1 mM peptide, R6 at optical density 0.01 (3×10^6 cfu/ml), followed for 11 hours): completely inhibited growth
minimum effective concentration (MEC) ([1]; R6, converted with molecular weight 2940): 0.15 to 0.3 µg/mL
minimum effective concentration (MEC) ([1]; R6, optical density of the culture over 4 hours): 50 to 100 nM
dose response of antibacterial activity ([1]; R6, various amounts of peptide, 4 hours): dose dependent antibacterial activity
viable bacterial number lower than the control ([10]; four hours): 10^3 fold
killing of R6 (FIG. 2B) ([10]; listed as SEQ ID NO:2): kills the bacteria without substantial cell lysis occurring; also recorded: rapidly killed
viable bacterial number four hours after addition of the peptide ([10]; start 3×10^6, control grew to 1.2×10^7 cfu/ml): 3×10^4 CFU/ml
bactericidal activity in strain Lyt 4-4 [11]: demonstrable
chain morphology of Lyt 4-4 ([12]; listed as SEQ ID NO.2): dissolution of the chains
chain morphology of Lyt 4-4 ([12]; listed as the peptide): reversion of the chains to diplococci
growth inhibition of the mutant in ORF W1 [13]: not able to inhibit growth
growth inhibition of the RR/HK mutants [14]: did not function to inhibit the growth
loss of viability of A144 within one hour [6]: 0.5 logs
growth of strain A144 [15]: significantly inhibits the growth
lysis response of non-growing R6 [8]: same response
lysis / tolerance of strain Van S [9]: not responsive
